# Results from the supplement of paper PMC10307832.
# Assays:
# Assay in all cases: relative viability (nuclei count vs DMSO), 5 days (fraction); higher = more cells survive
# [1] = system: NCI-H1650
# How it was run: (§1)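 Lung cancer cell lines in 1536-well plates got either a single drug or a fixed anchor-drug dose together with five library-drug doses (not always all listed) in √10 steps, by pin tool, on the day after seeding. Nuclei were counted after 5 days, and relative viability is the treated-to-vehicle ratio of nuclei counts. Values are medians of duplicate plates.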
# [2] = system: COR-L 105
# How it was run: as §1
# [3] = system: LU99A
# How it was run: as §1
# [4] = system: NCI-H838
# How it was run: as §1
# [5] = system: NCI-H2170
# How it was run: as §1
# [6] = system: PC-14
# How it was run: as §1
# [7] = system: HARA
# How it was run: as §1
# [8] = system: NCI-H1666
# How it was run: as §1
# [9] = system: EKVX
# How it was run: as §1
# [10] = system: LK-2
# How it was run: as §1
# [11] = system: CAL-12T
# How it was run: as §1
# [12] = system: NCI-H3122
# How it was run: as §1
# [13] = system: NCI-H441
# How it was run: as §1
# [14] = system: HCC-366
# How it was run: as §1
# [15] = system: BEN
# How it was run: as §1
# [16] = system: NCI-H2009
# How it was run: as §1
# [17] = system: NCI-H2023
# How it was run: as §1
# [18] = system: NCI-H1437
# How it was run: as §1
# [19] = system: NCI-H661
# How it was run: as §1
# [20] = system: 201T
# How it was run: as §1
# [21] = system: COR-L23
# How it was run: as §1
# [22] = system: SW 900
# How it was run: as §1
smiles,measurement,setting,value
Clc1ccc(Nc2nnc(Cc3ccncc3)c3ccccc23)cc1 [Vatalanib] + Nc1nc2[nH]cc(CCc3ccc(C(=O)N[C@@H](CCC(=O)O)C(=O)O)cc3)c2c(=O)[nH]1 [Pemetrexed] (partner 0.2 µM),relative viability,[1]; first compound 0.04 µM,0.359
same,relative viability,[1]; first compound 0.1265 µM,0.305
same,relative viability,[1]; first compound 0.4 µM,0.323
same,relative viability,[1]; first compound 1.265 µM,0.388
same,relative viability,[1]; first compound 4 µM,0.388
same,relative viability,[2]; first compound 0.04 µM,1.34
same,relative viability,[2]; first compound 0.1265 µM,1.1
same,relative viability,[2]; first compound 0.4 µM,1.2
same,relative viability,[2]; first compound 1.265 µM,1.15
same,relative viability,[2]; first compound 4 µM,1.04
same,relative viability,[3]; first compound 0.04 µM,0.182
same,relative viability,[3]; first compound 0.1265 µM,0.162
same,relative viability,[3]; first compound 0.4 µM,0.17
same,relative viability,[3]; first compound 1.265 µM,0.189
same,relative viability,[3]; first compound 4 µM,0.162
same,relative viability,[4]; first compound 0.04 µM,0.243
same,relative viability,[4]; first compound 0.1265 µM,0.226
same,relative viability,[4]; first compound 0.4 µM,0.261
same,relative viability,[4]; first compound 1.265 µM,0.239
same,relative viability,[4]; first compound 4 µM,0.239
same,relative viability,[5]; first compound 0.04 µM,0.328
same,relative viability,[5]; first compound 0.1265 µM,0.289
same,relative viability,[5]; first compound 0.4 µM,0.273
same,relative viability,[5]; first compound 1.265 µM,0.292
same,relative viability,[5]; first compound 4 µM,0.261
same,relative viability,[6]; first compound 0.04 µM,0.135
same,relative viability,[6]; first compound 0.1265 µM,0.125
same,relative viability,[6]; first compound 0.4 µM,0.125
same,relative viability,[6]; first compound 1.265 µM,0.129
same,relative viability,[6]; first compound 4 µM,0.129
same,relative viability,[7]; first compound 0.04 µM,0.225
same,relative viability,[7]; first compound 0.1265 µM,0.265
same,relative viability,[7]; first compound 0.4 µM,0.252
same,relative viability,[7]; first compound 1.265 µM,0.232
same,relative viability,[7]; first compound 4 µM,0.256
same,relative viability,[8]; first compound 0.04 µM,0.845
same,relative viability,[8]; first compound 0.1265 µM,0.844
same,relative viability,[8]; first compound 0.4 µM,0.843
same,relative viability,[8]; first compound 1.265 µM,0.799
same,relative viability,[8]; first compound 4 µM,0.901
same,relative viability,[9]; first compound 0.04 µM,0.416
same,relative viability,[9]; first compound 0.1265 µM,0.425
same,relative viability,[9]; first compound 0.4 µM,0.393
same,relative viability,[9]; first compound 1.265 µM,0.339
same,relative viability,[9]; first compound 4 µM,0.365
same,relative viability,[10]; first compound 0.04 µM,0.241
same,relative viability,[10]; first compound 0.1265 µM,0.252
same,relative viability,[10]; first compound 0.4 µM,0.319
same,relative viability,[10]; first compound 1.265 µM,0.235
same,relative viability,[10]; first compound 4 µM,0.207
same,relative viability,[11]; first compound 0.04 µM,1.15
same,relative viability,[11]; first compound 0.1265 µM,1.15
same,relative viability,[11]; first compound 0.4 µM,1.19
same,relative viability,[11]; first compound 1.265 µM,1.12
same,relative viability,[11]; first compound 4 µM,1.22
same,relative viability,[12]; first compound 0.04 µM,0.195
same,relative viability,[12]; first compound 0.1265 µM,0.19
same,relative viability,[12]; first compound 0.4 µM,0.191
same,relative viability,[12]; first compound 1.265 µM,0.199
same,relative viability,[12]; first compound 4 µM,0.189
same,relative viability,[13]; first compound 0.04 µM,0.249
same,relative viability,[13]; first compound 0.1265 µM,0.215
same,relative viability,[13]; first compound 0.4 µM,0.257
same,relative viability,[13]; first compound 1.265 µM,0.265
same,relative viability,[13]; first compound 4 µM,0.274
same,relative viability,[14]; first compound 0.04 µM,0.148
same,relative viability,[14]; first compound 0.1265 µM,0.133
same,relative viability,[14]; first compound 0.4 µM,0.185
same,relative viability,[14]; first compound 1.265 µM,0.162
same,relative viability,[14]; first compound 4 µM,0.148
same,relative viability,[15]; first compound 0.04 µM,0.662
same,relative viability,[15]; first compound 0.1265 µM,0.659
same,relative viability,[15]; first compound 0.4 µM,0.443
same,relative viability,[15]; first compound 1.265 µM,0.681
same,relative viability,[15]; first compound 4 µM,0.743
same,relative viability,[16]; first compound 0.04 µM,0.975
same,relative viability,[16]; first compound 0.1265 µM,0.971
same,relative viability,[16]; first compound 0.4 µM,1.09
same,relative viability,[16]; first compound 1.265 µM,1.01
same,relative viability,[16]; first compound 4 µM,0.974
same,relative viability,[17]; first compound 0.04 µM,0.263
same,relative viability,[17]; first compound 0.1265 µM,0.21
same,relative viability,[17]; first compound 0.4 µM,0.215
same,relative viability,[17]; first compound 1.265 µM,0.242
same,relative viability,[17]; first compound 4 µM,0.202
same,relative viability,[18]; first compound 0.04 µM,0.33
same,relative viability,[18]; first compound 0.1265 µM,0.342
same,relative viability,[18]; first compound 0.4 µM,0.328
same,relative viability,[18]; first compound 1.265 µM,0.26
same,relative viability,[18]; first compound 4 µM,0.275
same,relative viability,[19]; first compound 0.04 µM,0.868
same,relative viability,[19]; first compound 0.1265 µM,0.906
same,relative viability,[19]; first compound 0.4 µM,0.996
same,relative viability,[19]; first compound 1.265 µM,0.905
same,relative viability,[19]; first compound 4 µM,0.936
same,relative viability,[20]; first compound 0.04 µM,0.305
same,relative viability,[20]; first compound 0.1265 µM,0.335
same,relative viability,[20]; first compound 0.4 µM,0.337
same,relative viability,[20]; first compound 1.265 µM,0.359
same,relative viability,[20]; first compound 4 µM,0.311
same,relative viability,[21]; first compound 0.04 µM,0.204
same,relative viability,[21]; first compound 0.1265 µM,0.194
same,relative viability,[21]; first compound 0.4 µM,0.212
same,relative viability,[21]; first compound 1.265 µM,0.201
same,relative viability,[21]; first compound 4 µM,0.208
same,relative viability,[22]; first compound 0.04 µM,0.476
same,relative viability,[22]; first compound 0.1265 µM,0.471
same,relative viability,[22]; first compound 0.4 µM,0.467
same,relative viability,[22]; first compound 1.265 µM,0.478
same,relative viability,[22]; first compound 4 µM,0.464
